Reference: the supplement of paper PMC10307832

Columns and labels:
Test in all cases: relative viability (nuclei count vs DMSO), 5 days (fraction); higher = more cells survive
[1] = compound: CCC1=CN=CN=C1N2CCN(CC2)CC3=NC4=C(N3)C=C(C=C4)C(F)(F)F + CC1(C)CCC(c2ccc(Cl)cc2)=C(CN2CCN(c3ccc(C(=O)NS(=O)(=O)c4ccc(N[C@H](CCN5CCOCC5)CSc5ccccc5)c(S(=O)(=O)C(F)(F)F)c4)cc3)CC2)C1 [Navitoclax] (partner 0.5 µM)
Procedure, shortened: (§1)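 Medians of duplicate plates are given as relative viability. That measure is the nuclei count in treated wells divided by the count in vehicle wells. Counts were taken on 4× images of lung cancer cell lines in 1536-well plates, 5 days after pin-tool dosing the day after seeding with one drug alone or a fixed anchor-drug dose plus five library-drug doses (not always all listed) in √10 steps.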

[2] = compound: CCn1c(-c2nonc2N)nc2cnc(Oc3cccc(NC(=O)c4ccc(OCCN5CCOCC5)cc4)c3)cc21 + CC(=O)c1c(C)c2cnc(Nc3ccc(N4CCNCC4)cn3)nc2n(C2CCCC2)c1=O [Palbociclib] (partner 0.5 µM)
Procedure, shortened: as §1

Mirin + Palbociclib = compound: N=C1NC(=O)/C(=C/c2ccc(O)cc2)S1 [Mirin] + CC(=O)c1c(C)c2cnc(Nc3ccc(N4CCNCC4)cn3)nc2n(C2CCCC2)c1=O [Palbociclib] (partner 0.5 µM)
Procedure, shortened: as §1

[3] = compound: CCC1=CN=CN=C1N2CCN(CC2)CC3=NC4=C(N3)C=C(C=C4)C(F)(F)F + NC(=O)Nc1cc(-c2cccc(F)c2)sc1C(=O)N[C@H]1CCCNC1 [AZD7762] (partner 0.2 µM)
Procedure, shortened: as §1

Cell Line | relative viability ([1]; first compound 0.04 µM) | relative viability ([1]; first compound 0.1265 µM) | relative viability ([1]; first compound 0.4 µM) | relative viability ([1]; first compound 1.265 µM) | relative viability ([1]; first compound 4 µM) | relative viability ([2]; first compound 0.04 µM) | relative viability ([2]; first compound 0.1265 µM) | relative viability ([2]; first compound 0.4 µM) | relative viability ([2]; first compound 1.265 µM) | relative viability ([2]; first compound 4 µM) | relative viability (Mirin + Palbociclib; first compound 0.25 µM) | relative viability (Mirin + Palbociclib; first compound 0.7906 µM) | relative viability (Mirin + Palbociclib; first compound 2.5 µM) | relative viability (Mirin + Palbociclib; first compound 7.906 µM) | relative viability (Mirin + Palbociclib; first compound 25 µM) | relative viability ([3]; first compound 0.04 µM) | relative viability ([3]; first compound 0.1265 µM) | relative viability ([3]; first compound 0.4 µM) | relative viability ([3]; first compound 1.265 µM) | relative viability ([3]; first compound 4 µM)
LC-2-ad | 0.459 | 0.603 | 0.522 | 0.324 | 0.351 | 0.563 | 0.469 | 0.455 | 0.355 | 0.307 | 0.543 | 0.456 | 0.474 | 0.505 | 0.483 | 0.87 | 0.807 | 0.823 | 0.81 | 0.804
NCI-H1666 | 0.975 | 0.836 | 0.962 | 0.817 | 0.846 | 0.635 | 0.64 | 0.613 | 0.57 | 0.538 | 0.684 | 0.665 | 0.64 | 0.627 | 0.662 | 0.864 | 0.77 | 0.767 | 0.716 | 0.815
201T | 1.23 | 1.19 | 1.16 | 1.17 | 1.23 | 0.359 | 0.366 | 0.368 | 0.354 | 0.345 | 0.365 | 0.413 | 0.353 | 0.348 | 0.395 | 0.64 | 0.581 | 0.511 | 0.585 | 0.681
NCI-H1395 | 1.16 | 1.14 | 1.11 | 0.949 | 1.12 | 0.562 | 0.558 | 0.565 | 0.457 | 0.482 | 0.588 |  | 0.594 | 0.69 | 0.581 | 0.398 | 0.349 | 0.37 |  | 0.474
NCI-H23 | 0.845 | 0.903 | 0.783 | 0.749 | 1.04 | 0.708 | 0.521 | 0.547 | 0.394 | 0.353 | 0.548 |  | 0.519 | 0.49 | 0.524 | 0.25 | 0.202 | 0.162 | 0.229 | 0.325
LU99A | 0.846 | 0.825 | 0.864 | 0.709 | 0.657 | 0.502 | 0.399 | 0.392 | 0.405 | 0.392 | 0.412 | 0.339 | 0.425 | 0.358 | 0.339 | 0.41 | 0.301 | 0.34 | 0.359 | 0.403
NCI-H1437 | 1.09 | 1 | 0.944 | 0.822 | 0.724 | 0.355 | 0.367 | 0.389 | 0.279 | 0.331 | 0.358 | 0.32 | 0.292 | 0.318 | 0.327 | 1.13 | 1.15 | 0.996 | 1.03 | 0.706
EKVX | 0.96 | 0.96 | 0.886 | 0.724 | 0.977 | 0.566 | 0.368 | 0.365 | 0.348 | 0.329 | 0.367 | 0.376 | 0.302 | 0.365 | 0.412 | 0.724 | 0.712 | 0.756 | 0.646 | 0.777
LCLC-97TM1 | 0.411 | 0.384 | 0.396 | 0.489 | 0.396 | 0.276 | 0.245 |  | 0.27 | 0.281 | 0.227 | 0.236 | 0.192 | 0.152 | 0.198 | 0.263 | 0.206 | 0.22 | 0.309 | 0.274
NCI-H2170 | 0.561 | 0.69 | 0.534 | 0.608 | 0.608 | 0.434 | 0.405 | 0.378 | 0.408 | 0.407 | 0.415 | 0.379 | 0.374 | 0.361 | 0.436 | 0.899 | 0.832 | 0.83 | 0.724 | 0.941
NCI-H1793 | 0.381 | 0.447 | 0.363 |  | 0.435 | 0.263 | 0.304 | 0.3 | 0.283 | 0.251 | 0.331 |  | 0.349 | 0.335 | 0.339 | 0.548 | 0.407 | 0.392 | 0.334 | 0.347
NCI-H322M | 1.26 | 1.1 | 1.13 | 1.29 | 1.2 | 0.543 | 0.51 | 0.487 | 0.451 | 0.486 | 0.466 | 0.497 | 0.521 | 0.553 | 0.522 | 0.538 | 0.591 | 0.572 | 0.511 | 0.653
PC-3 [JPC-3] | 0.912 | 0.781 | 0.745 | 0.733 | 0.775 | 0.539 | 0.548 | 0.444 | 0.497 | 0.482 | 0.596 | 0.574 | 0.551 | 0.524 | 0.631 |  | 0.688 | 0.69 | 0.683 | 0.808
EPLC-272H | 0.973 | 1.05 | 1.11 | 1.07 | 1.31 | 0.391 | 0.406 | 0.302 | 0.316 | 0.296 | 0.283 |  | 0.339 | 0.345 | 0.353 | 0.172 | 0.209 | 0.207 | 0.245 | 0.262
A-427 | 0.873 | 0.9 | 0.915 | 0.872 | 0.826 | 0.46 | 0.495 | 0.412 | 0.283 | 0.275 | 0.494 | 0.5 | 0.552 | 0.516 | 0.504 | 0.735 | 0.788 | 0.631 | 0.641 | 0.785
